Measured values reported in the supplement of paper PMC10307832.

Legend:
Experiment in all cases: relative viability (nuclei count vs DMSO), 5 days (fraction); higher = more cells survive
[1] = compound: CC1=CN=C(N=C1C2=CNC(=C2)C(=O)N[C@H](CO)C3=CC(=CC=C3)Cl)NC4=C(C=C(C=C4)F)Cl [VX-11e]
Summary of the method: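 A plate was accepted only when its control CV was below 25% and the cells had doubled at least once. Viability is defined from nuclear counts as treated wells divided by vehicle wells, with the median taken across plates. That median covers lung cancer cell lines grown in 1536-well plates, dosed by pinning at five √10-spaced library-drug concentrations, and counted in MetaXpress from 4× Hoechst images after 5 days.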

[2] = compound: CC1=CN=C(N=C1C2=CNC(=C2)C(=O)N[C@H](CO)C3=CC(=CC=C3)Cl)NC4=C(C=C(C=C4)F)Cl [VX-11e] + CC(=O)Nc1cccc(-n2c(=O)n(C3CC3)c(=O)c3c(Nc4ccc(I)cc4F)n(C)c(=O)c(C)c32)c1 [Trametinib] (partner 0.02 µM)
Summary of the method: (§1)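 The day after seeding in 1536-well plates, lung cancer cell lines were treated by pin tool with a single drug, or with a fixed anchor-drug dose together with five library-drug doses (not always all listed) in √10 steps. After 5 days, a combined fix-and-stain solution (final 0.05% Triton X-100, 1% formaldehyde, 1 ug/ml Hoechst) was added. Nuclei counted on 4× images gave relative viability as treated counts over vehicle counts, reported as the median of duplicate plates.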

[3] = compound: CC1=CN=C(N=C1C2=CNC(=C2)C(=O)N[C@H](CO)C3=CC(=CC=C3)Cl)NC4=C(C=C(C=C4)F)Cl [VX-11e] + COc1cccc2cc(-c3nc([C@H]4CC[C@H](C(=O)O)CC4)n4ncnc(N)c34)[nH]c12 [OSI-027] (partner 0.5 µM)
Summary of the method: as §1

[4] = compound: CC1=CN=C(N=C1C2=CNC(=C2)C(=O)N[C@H](CO)C3=CC(=CC=C3)Cl)NC4=C(C=C(C=C4)F)Cl [VX-11e] + N=C(N)NC(=N)NCCc1ccccc1 [Phenformin] (partner 250 µM)
Summary of the method: as §1

## HCC-827
[1]; 0.04 µM
  relative viability: 1.09
[1]; 0.1265 µM
  relative viability: 0.988
[1]; 0.4 µM
  relative viability: 1.07
[1]; 1.265 µM
  relative viability: 1.14
[1]; 4 µM
  relative viability: 0.958
[2]; first compound 0.04 µM
  relative viability: 0.555
[2]; first compound 0.1265 µM
  relative viability: 0.568
[2]; first compound 0.4 µM
  relative viability: 0.454
[2]; first compound 1.265 µM
  relative viability: 0.549
[2]; first compound 4 µM
  relative viability: 0.274
[3]; first compound 0.04 µM
  relative viability: 0.762
[3]; first compound 0.1265 µM
  relative viability: 0.797
[3]; first compound 0.4 µM
  relative viability: 0.74
[3]; first compound 1.265 µM
  relative viability: 0.977
[3]; first compound 4 µM
  relative viability: 0.44
[4]; first compound 0.04 µM
  relative viability: 0.409
[4]; first compound 0.1265 µM
  relative viability: 0.413
[4]; first compound 0.4 µM
  relative viability: 0.369
[4]; first compound 1.265 µM
  relative viability: 0.479
[4]; first compound 4 µM
  relative viability: 0.375

## HOP-62
[1]; 0.04 µM
  relative viability: 1.04
[1]; 0.1265 µM
  relative viability: 0.986
[1]; 0.4 µM
  relative viability: 0.921
[1]; 1.265 µM
  relative viability: 0.595
[1]; 4 µM
  relative viability: 0.567
[2]; first compound 0.04 µM
  relative viability: 0.381
[2]; first compound 0.1265 µM
  relative viability: 0.428
[2]; first compound 0.4 µM
  relative viability: 0.296
[2]; first compound 1.265 µM
  relative viability: 0.179
[2]; first compound 4 µM
  relative viability: 0.151
[3]; first compound 0.04 µM
  relative viability: 0.633
[3]; first compound 0.1265 µM
  relative viability: 0.715
[3]; first compound 0.4 µM
  relative viability: 0.569
[3]; first compound 1.265 µM
  relative viability: 0.464
[3]; first compound 4 µM
  relative viability: 0.372
[4]; first compound 0.04 µM
  relative viability: 0.754
[4]; first compound 0.1265 µM
  relative viability: 0.647
[4]; first compound 0.4 µM
  relative viability: 0.524
[4]; first compound 1.265 µM
  relative viability: 0.421
[4]; first compound 4 µM
  relative viability: 0.377

## IA-LM
[1]; 0.04 µM
  relative viability: 0.767
[1]; 0.1265 µM
  relative viability: 0.916
[1]; 0.4 µM
  relative viability: 0.913
[1]; 1.265 µM
  relative viability: 0.468
[1]; 4 µM
  relative viability: 0.129

## LC-2-ad
[1]; 0.04 µM
  relative viability: 1.01
[1]; 0.1265 µM
  relative viability: 0.823
[1]; 0.4 µM
  relative viability: 0.662
[1]; 1.265 µM
  relative viability: 0.603
[1]; 4 µM
  relative viability: 0.66
[2]; first compound 0.04 µM
  relative viability: 0.998
[2]; first compound 0.1265 µM
  relative viability: 0.856
[2]; first compound 0.4 µM
  relative viability: 0.881
[2]; first compound 1.265 µM
  relative viability: 0.755
[2]; first compound 4 µM
  relative viability: 0.537
[3]; first compound 0.04 µM
  relative viability: 0.73
[3]; first compound 0.1265 µM
  relative viability: 0.534
[3]; first compound 0.4 µM
  relative viability: 0.363
[3]; first compound 1.265 µM
  relative viability: 0.584
[3]; first compound 4 µM
  relative viability: 0.466
[4]; first compound 0.04 µM
  relative viability: 0.525
[4]; first compound 0.1265 µM
  relative viability: 0.461
[4]; first compound 0.4 µM
  relative viability: 0.395
[4]; first compound 1.265 µM
  relative viability: 0.372
[4]; first compound 4 µM
  relative viability: 0.467
